Broadly, the IC50 is the concentration at which inhibition is half-maximal.

Assay [1] concerns PMNs. Nature of the assay: PMN adhesion to immobilized proMMP-9 (phosphatase assay). It counts as cell-based, human. The following applies: PMA-stimulated PMNs; peptide 50 μM, antibody 20 μg/ml; FIG. 5C. On the procedure:
FIG. 5A to 5D. Recognition of recombinant MMP-9 domains by αMβ2 integrin-expressing cells. The studied cells were PMNs (5A, 5B, 5C), αMβ2 L-cell transfectants (5D), non-transfectants (5D), and LAD-1 cells (5D). PMNs were in resting state or stimulated with PMA (5A, 5C) or C5a or TNFα (5B) before the binding experiment to proMMP-9 or its domains. Cells were also pretreated with each peptide (50 μM), antibody (20 μg/ml) or the αM I domain as indicated. Unbound cells were removed by washing and the number of adherent cells was quantitated by a phosphatase assay. The experiment was repeated three times with similar results.
MMP-9 proteins (200 nM in PBS) were coated at +4° C. for 16 h and the microtiter wells were blocked with 3% BSA in PBS for 1 h at room temperature. The αMβ2-integrin L-cell transfectants and PMNs (1×10^5 cells/well) were suspended in RPMI medium supplemented with 2 mM MgCl2 and 0.1% BSA and activated with PMA (20 nM) for 20 min, or with C5a (50 nM) or TNF-α (10 nM) for 4 h at +37° C. The L926 wild type and LAD-1 cells were used as controls. The cells were treated with the indicated antibody (20 μg/ml) or peptide (50 μM) at +37° C. for 30 min, washed twice with serum-free medium and incubated in the microtiter wells at +37° C. for 30 min. The wells were washed with PBS, and the number of adherent cells was quantitated by a phosphatase assay (25).

For assay [2], the system named is PMNs. Nature of the assay: PMN transendothelial migration through HMEC monolayer. It counts as cell-based, human. The settings on record: chemotaxis with C5a or TNF-α, peptides 200 μM, antibodies 20 μg/ml, FIG. 6B. The method, then:
(§1) FIG. 6A to 6D. Blockage of PMN and THP-1 cell migration in vitro by gelatinase and β2 integrin inhibitors. PMNs (1×10^5 in 100 μl) were applied on the LLG-C4-GST or GST coated surface (6A) or HMEC monolayer (6B) in the absence or presence of peptides (200 μM) or antibodies (20 μg/ml) as indicated. PMNs were stimulated with 20 nM PMA (6A), HMECs with […] or 10 ng/ml TNFα or left untreated (6B). THP-1 cells (5×10^4 in 100 μl) were stimulated with 50 nM PMA and applied on the coated surfaces together with each peptide (200 μM) (6C). The cells migrated through transwell filters were stained and counted microscopically. All experiments were repeated at least twice. (6D) Phorbol ester-activated THP-1 cells (5×10^4 in 100 μl) were incubated for 16 h at +37° C. in the presence or absence of peptides as indicated. The conditioned medium was analyzed by gelatin zymography.
(§2) Cell migration was conducted using Costar 24-transwell migration chambers with a 3 μm pore size for PMNs and 8 μm for THP-1 cells. To study β2 integrin-directed migration, the chamber membrane was coated on both sides with LLG-C4-GST integrin ligand (40 μg/ml) or GST as a control and blocked with 10% serum-containing medium (16). […] The non-migrated cells were removed from the upper surface by a cotton swab and the cells that had traversed the filters were stained with crystal violet and counted.

Another assay deals with MMP-9 catalytic domain. Nature of the assay: Binding to the MMP-9 catalytic domain (unpublished results).
Assay [3] deals with THP-1 cells. Nature of the assay: THP-1 cell migration through LLG-C4-GST coated transwell filters. It counts as cell-based, human. The settings on record: LLG-C4GST coated filters; 50 nM PMA; peptides 200 μM; 16 h; FIG. 6C. The method, then: as §1, §2
Assay [4] deals with PMNs. Nature of the assay: PMN transwell migration on LLG-C4-GST coated filters. The settings on record: LLG-C4-GST substratum; peptides 200 μM, antibodies 20 μg/ml; 20 nM PMA; FIG. 6A. It counts as cell-based, human. The method, then: as §1, §2
For a further assay, the target named is T1, αM I domain (Homo sapiens, UniProt P11215).
T1 construct: GST-αM and GST-αL I domain fusion proteins were expressed and purified as described previously (30); made in house
As to the kind of experiment: Binding of proMMP-9 to immobilized GST-αM I domain in the presence of competitor peptides (detected with GE-213 antibody). The following applies: FIG. 4C. On the procedure: (4C) Binding of proMMP-9 to the immobilized GST-αM I domain was studied in the presence of each peptide at the concentrations indicated. The binding was determined with the anti-MMP-9 antibody GE-213.
(§3) ICAM-1, fibrinogen, proMMP-8, proMMP-9 or the recombinant domains (0.5 μg/well in PBS) were coated on plastic 96-well plates at +4° C. for 16 h and the wells were blocked with 3% bovine serum albumin (BSA) in PBS for 2 h at room temperature. Binding of the GST-αM I domain was determined essentially as described in the first priority application. In the reverse assay, GST-αM I domain was coated and binding of proMMP-9 was determined using the GE-213 antibody. Competitor peptides were preincubated with the αM I-domain for 20 minutes before the experiment.

Assay [5] relates to intraperitoneal accumulation of PMNs. Nature of the assay: Mouse model of thioglycolate-induced peritonitis. It counts as in vivo. The settings on record: for inhibition of intraperitoneal accumulation of PMNs: intravenous tail injection, 3 h after thioglycolate, FIG. 7A; for prevention of thioglycolate-induced increase in gelatinase levels in intraperitoneal fluid (zymography): DDGW 0.1, HFDDDE 0.2, DFEDHD 0.2 mg per mouse intravenously, FIG. 7D. The method, then:
(7A) Mice were injected with thioglycolate or PBS intraperitoneally. The peptides were applied intravenuously at the amounts indicated (A). After 3 h, the intraperitoneal leukocytes were harvested and counted. […] (*) indicates statistical significant difference (p<0.001). The experiment was repeated at least 3 times. The infiltrated neutrophils of mice treated with thioglycolate (7B) or PBS (7C) were stained with anti-MMP-9 and anti-αM, as described in the FIG. 3 legend. Fluorescence was studied by confocal microscopy. Bars: 9.1 μm and […], respectively.
(7D) Gelatinolytic activity of the supernatants from the peritoneal cavities of mice collected as in (7A). Lanes 1-4: samples are from thioglycolate-treated mice; lane 5: a sample from PBS-treated mouse. DDGW, HFDDDE, and DFEDHD were injected intravenously at doses of 0.1, 0.2 and 0.2 mg per mouse. The arrows show proMMP-9 dimer, proMMP-9 and proMMP-2. The experiment was repeated three times with similar results.
Balb/c mice at the age of 31-32 weeks were injected intraperitoneally with 3% (w/v) thioglycolate in sterile saline (32). Peptides ([…] in 100 μl) were introduced intravenously through the tail vein. Animals were euthanized after 3 h and the peritoneal cells were harvested by injecting 10 ml of sterile PBS through the peritoneal wall. Red blood cells present in the lavage fluid were removed by hypotonic lysis. Cells were centrifuged and resuspended in 1 ml of sterile 0.25% BSA/Krebs-Ringer. The supernatants were also collected and analysed by gelatin zymography. The number of neutrophils was determined following staining with 0.1% crystal violet and using a light microscope equipped with a ×100 objective. For immunofluorescence staining, cells were allowed to bind to poly-L-lysine coated cover slips, fixed with 2.5% paraformaldehyde in PBS at +4° C. for 30 min followed by several washings. The Fc receptors were blocked in the presence of 20% of rabbit serum and 3% BSA in PBS. The cells were then incubated with anti-MMP-9 polyclonal and αM monoclonal (MCA74) antibodies for 30 min. After washing with PBS, the secondary antibodies, rhodamine (TRITC)-conjugated anti-rabbit or FITC-conjugated anti-rat (Fab′)2 were incubated for another 30 min. The samples were examined with a confocal microscope. The animal studies were approved by an ethical committee of Helsinki University.

Assay [6] has as its system THP-1 cells. As to the kind of experiment: Effect of peptides on gelatinase release from THP-1 cells (gelatin zymography). It counts as cell-based, human. The settings on record: phorbol ester-activated cells; peptides 200 μM; 16 h; FIG. 6D. On the procedure:
as §1
THP-1 cells (50 000/100 μl) were incubated in serum-free RPMI for 16 h in the presence or absence of peptides (200 μM) as described in the text The supernatants from THP-1 cells and mouse intraperitoneal fluid were analysed by gelatin zymography. Gelatinolytic activity was quantified by densitometric scanning.

The next assay relates to T2, proMMP-9 (Homo sapiens).
T2 construct: GST-αM and GST-αL I domain fusion proteins were expressed and purified as described previously (30); made in house
Nature of the assay: Binding of GST-αM I domain to immobilised proMMP-9 with competitors. The settings on record: competitors 50 μM; FIG. 4D. The method, then:
(§4) (4D) Binding of GST-αM I domain to the immobilised proMMP-8, proMMP-9, ICAM-1, and fibrinogen was studied with ICAM-1, DDGW or KKGW (50 μM) as competitors. In control wells, GST was added instead of GST-αM I domain. The experiment was repeated three times with similar results.
as §3

In another assay the test system is T3, proMMP-8 (Homo sapiens).
T3 construct: GST-αM and GST-αL I domain fusion proteins were expressed and purified as described previously (30); made in house
Nature of the assay: Binding of GST-αM I domain to immobilised proMMP-8 with competitors. The following applies: competitors 50 μM; FIG. 4D. On the procedure: as §4, §3

In assay [7] the test system is leukocyte primary adhesion to ICAM-1, fibrinogen or LLG-C4GST. Nature of the assay: Leukocyte primary adhesion to ICAM-1, fibrinogen or LLG-C4GST. It counts as cell-based.
The subject of assay [8] is THP-1 cells. The settings on record: FI 2003 0923; cited from earlier work.

No end group written: not given here.

T2 sequence (P11215 150-328 limits assumed): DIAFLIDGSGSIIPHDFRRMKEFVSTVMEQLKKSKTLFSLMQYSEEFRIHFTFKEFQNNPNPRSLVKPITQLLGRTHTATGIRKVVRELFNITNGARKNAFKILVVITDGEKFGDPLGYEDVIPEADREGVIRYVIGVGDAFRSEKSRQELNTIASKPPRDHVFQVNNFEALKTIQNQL
T3 sequence (P11215 150-328 limits assumed): as above
T1 sequence (P11215 150-328 limits assumed): as above
Sequence of MMP-9 catalytic domain (P14780 107-444 limits assumed): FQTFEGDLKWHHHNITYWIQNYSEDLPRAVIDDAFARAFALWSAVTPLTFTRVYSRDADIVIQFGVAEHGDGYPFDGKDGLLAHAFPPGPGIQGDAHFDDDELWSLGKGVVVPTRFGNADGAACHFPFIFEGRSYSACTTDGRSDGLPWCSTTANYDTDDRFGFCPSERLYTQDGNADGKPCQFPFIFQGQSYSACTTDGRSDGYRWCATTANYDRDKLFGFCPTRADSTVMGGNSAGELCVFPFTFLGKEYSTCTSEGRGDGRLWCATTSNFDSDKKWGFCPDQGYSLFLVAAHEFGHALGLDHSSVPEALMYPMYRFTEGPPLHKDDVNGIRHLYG

On to CTITHWGFTLC [CTT], for which the “inhibition of PMN adherence on proMMP-9” value with PMNs [1] is “inhibited”. Besides, in the assay on PMNs [2], the “inhibition of PMN transendothelial migration” value is recorded as “inhibition”. In addition, the “binding to the MMP-9 catalytic domain” value in the assay with MMP-9 catalytic domain is “binds”. Besides, the “inhibition of THP-1 migration” value in the assay with THP-1 cells [3] was “inhibited”. In the assay with PMNs [4], the “inhibition of migration of PMA-stimulated PMNs” value is “worked similarly”.
As to “ADGACILWMKKGWCGAAG [control peptide for DDGW]”, the “inhibition of proMMP-9 binding to the αM I domain (in words)” value (“inhibition of proMMP-9 binding” below) in the assay with αM I domain was “without effect”. The “inhibition of PMN adherence on proMMP-9” value in the assay with PMNs [1] is reported as “no effect”. For the same molecule, the “inhibition of intraperitoneal accumulation of PMNs” value (from here on “inhibition … of PMNs”) in assay [5] was “no effect”.
Take DFEDHD: the “release of proMMP-9 from THP-1 cells” value in the assay with THP-1 cells [6] is recorded as “did not induce”. On αM I domain, the “inhibition of proMMP-9 binding” value is “inactive”. Moreover, the “inhibition of PMN adherence on proMMP-9” value with PMNs [1] is given as “no effect”. Also, in [5], the “prevention of thioglycolate-induced increase in gelatinase levels in intraperitoneal fluid (zymography)” value is “not” and the “inhibition … of PMNs” value is “no effect”.
In the case of HFDDDE [HFDDDE], on αM I domain (read-out: inhibition of proMMP-9 binding to the αM I domain, IC50), the IC50 worked out at 20 µM.
On to fibrinogen, for which the “competition with αM I domain binding to proMMP-9” value (“competition … to proMMP-9” for short) in the assay with proMMP-9 (Homo sapiens) is reported as “did not compete”. The “competition with αM I domain binding to proMMP-8” value (“competition … to proMMP-8” below) in the assay with proMMP-8 (Homo sapiens) is recorded as “did not compete”.
For the molecule ADGACILWMDDGWCGAAG, the “inhibition of leukocyte primary adhesion to ICAM-1, fibrinogen or LLG-C4GST” value in assay [7] is recorded as “unable to inhibit”. Moreover, in the assay on THP-1 cells [8], the “release of proMMP-9 from THP-1 cells (previous studies)” value was “can release proMMP-9”. Also, in the assay with proMMP-9 (Homo sapiens), the “competition … to proMMP-9” value is “inhibitable”. Also, the “inhibition of proMMP-9 binding” value with αM I domain is listed as “equally potent”. Also, the “inhibition of PMN adherence on proMMP-9” value with PMNs [1] is reported as “inhibited”. In addition, in the assay with PMNs [2], the “inhibition of PMN transendothelial migration” value is “inhibition”. For the same molecule, the “competition … to proMMP-8” value with proMMP-8 (Homo sapiens) is “inhibitable”. In addition, the “inhibition of THP-1 migration” value in the assay with THP-1 cells [3] is reported as “inhibited”. Further, the “inhibition of migration of PMA-stimulated PMNs” value with PMNs [4] was “worked similarly”. Also, the “activity on intraperitoneal PMN accumulation” value in assay [5] (5 μg given per mouse, intravenous) was “active”. In assay [5], the “prevention of thioglycolate-induced increase in gelatinase levels in intraperitoneal fluid (zymography)” value is “prevented the increase” and the “inhibition … of PMNs” value was “inhibited”. The molecule further gave an effective dose in assay [5] (corresponding to 5 μg given per mouse) of 0.1 mg/kg mouse tissue.

B1: ICAM-1: intracellular adhesion molecule 1, β2 integrin ligand used as competitor (protein, UniProt P05362 28-532, looked up)
Intercellular adhesion …: QTSVSPSKVILPRGGSVLVTCSTSCDQPKLLGIETPLPKKELLLPGNNRKVYELSNVQEDSQPMCYSNCPDGQSTAKTFLTVYWTPERVELAPLPSWQPVGKNLTLRCQVEGGAPRANLTVVLLRGEKELKREPAVGEPAEVTTTVLVRRDHHGANFSCRTELDLRPQGLELFENTSAPYQLQTFVLPATPPQLVSPRVLEVDTQGTVVCSLDGLFPVSEAQVHLALGDQRLNPTVTYGNDSFSAKASVSVTAEDEGTQRLTCAVILGNQSQETLQTVTIYSFPAPNVILTKPEVSEGTEVTVKCEAHPRAKVTLNGVPAQPLGPRAQLLLKATPEDNGRSFSCSATLEVAGQLIHKNQTRELRVLYGPRLDERDCPGNWTWPENSQQTPMCQAWGNPLPELKCLKDGTFPLPIGESVTVTRDLEGTYLCRARSTQGEVTRKVTVNVLSPRYEIVIITVVAAAVIMGTAGLSTYLYNRQRKIKKYRLQQAQKGTPMKPNTQATPP
B1: the “competition … to proMMP-9” value with proMMP-9 (Homo sapiens) is “did not compete”. Further, the “competition … to proMMP-8” value with proMMP-8 (Homo sapiens) is “did not compete”.

Values taken from patent publication US20070099839A1, “Inhibitors of cell migration” (CIT CANCER TARGETING TECHNOLOGIES, priority 2001, published 2007).
